{"source": "patent US6770738B1", "about": "“Higher order structure and binding of peptide nucleic acids” (ISIS Pharmaceuticals, Inc., priority 1992, dated 2004)", "key": {"[1]": {"tested_on": "pA98 plasmid relaxed circles (rcDNA)", "experiment": "Unwinding of closed circular DNA with PNA", "format": "binding", "protocol": "Relaxed circular DNA was prepared by treating ordinary supercoiled plasmid DNA with an extract containing DNA topoisomerase I, as described by V. I. Lyamichev, et. al., J. Biomolec. Struct. Dynamics, 3, 327-338 (1985). DNA-PNA complexes were obtained by incubation of 1-2 μg of DNA in 5-20 μL TE with 0.4 optical units./mL of PNA for 4 hours at 20-22° C. This corresponded to about 10 times molar excess of PNA to its potential binding sites. Agarose (1.5%) gel electrophoresis was performed in the TAE buffer containing 1 μg/mL of chloroquine at 10° C. for 15 hours at 1.5 V/cm. Tw—dimensional gel electrophoresis was preformed in the first direction (from top to bottom) in the TAE buffer and in the second direction (from left to right) in the same buffer with addition of 1 μg/mL of chloroquine.\nIn this example, the efficiency of PNA T10 incorporating into the DNA duplex and displacing the DNA T-strand in solution was shown by unwinding of closed circular DNA by PNA. The pA98 plasaid (Example 16) was prepared in the form of relaxed circles (rcDNA). It was expected that complexing with PHA would unwind about 10 turns of the DNA duplex. Because of topological constraints (the two strands in rcDNA were closed and therefore topologically linked), this unwinding would make the rcDNA molecules behave as if they were positively supercoiled by 10 superturns. […]"}, "[2]": {"tested_on": "T3 RNA polymerase transcription of pA10KS (d(A10) target)", "experiment": "Inhibition of RNA polymerase T3 transcription elongation by PNA", "format": "biochemical", "settings": "PNA 1 or 10 uM bound to the template strand", "protocol": "The complex, between PNA T10-LysNH2 (SEQ ID NO:2) (1 or 10 um) and pAIOKS (pBluescriptKS^+ in which the d(A10) target is cloned into the BamHl site, analogous to pTlO) (100 ng) cleaved with restriction enzyme PyuII, XbaI, or BamHl, was formed by incubation in 14 μL 10 m Tris-HCl, 1 mM EDTA, (pH 7.4) buffer for 60 min. at 37° C. Subsequently 4 μL 5× concentrated polymerase buffer (0.2 M Tris-HCl, pH 8.0, 125 mM NaCl, 40 mM MgCl2, 10 mM spermidine) was added together with 15 U T3 RNA polymerase and ATP (10 mM), CTP (10 mM), GTP (10 mM), UTP (1 mM) and ^32P-UTP (0.1 μCi), and the incubation was continued for 10 min. Following ethanol precipitation, the RNA was analyzed by electrophoresis in sequencing gels and the radiolabeled bands were visualized by autoradiography using intensifying screens. The results are shown in FIG. 18: Lane 1: pTIOKS was cut with PyuH and no PNA was present. Lane 2: pTIOKS was cut with BamHl, and no PNA was present. Lane 3: pTIOKS was cut with XbaI, no PNA. Lane 4: as in lane 1 but in the presence of PNA (1 uM). Lane 5: as lane 3+PNA (1 uM). Lane 6: as lane 1+PNA (10 uM). Lane 7: as lane 3+PNA (10 uM).\nThe complex between the desired PNA and the desired DNA (100 ng) cleaved with the desired restriction enzyme was formed by incubation in 14 μL 10 mM Tris-HCl, 1 mM EDTA, (pH 7.4) buffer for 60 min at 37° C. Subsequently 4 μL 5× concentrated polymerase buffer (0.2 M Tris-HCl, pH 8.0, 125 mM NaCl, 40 mM MgCl2 10 mM spermidine) was added together with 15 U of RNA polymerase and ATP (10 μM), CTP (10 mM), UTP (1 mM) and ^32P-UTP (0.1 μCi). The incubation was continued for 10 min. Following ethanol precipitation, the RNA was analyzed by electrophoresis in polyacrylamide sequencing gels, and radialabeled RNA bands were visualized by autoradiography (using Agfa Curix RPI X-ray films and intensifying screens). Quantitation was performed by densitometric scanning using a Molecular Dynamics laser scanner and the ImageQuant™ software.\nIn this example transcription arrest with PNAs shorter than 10 mers was examined. […]"}, "[3]": {"tested_on": "Taq DNA polymerase primer extension on pAIOKS", "experiment": "Inhibition of Taq DNA polymerase primer extension by PNA", "format": "biochemical", "settings": "pre-formed complex, 1 ug PNA", "protocol": "A mixture of 100 500 ng Pvull cleaved plasmid pAIOKS, 0.1 ug M13 reverse primer and 1 ug of PNA T10-LysNH2(SEQ ID NO:2) in 10 ul buffer ([…], pH 8.3, 50 mM KCl, 1.5 mM MgCl2, 0.1 mg/ml gelatine) was incubated for 5 min at 90° C. and then for 60 min at 37° C. Subsequently, 1 U of Taq polymerase, 1 ul dCTP (100 uM), dGTP (100 uM), dTTP (100 uM) and ^32 P-dATP (1 uCi) were added and the incubation continued for 5 min at 20° C. Following the addition of 2 ul dATP, dCTP, dGTP, dTTP (1 mM each), the sample was incubated for 15 min at 60° C. The DNA was precipitated with ethanol and the samples treated as described for Example 18. The results are shown in FIG. 19: Lane 1: pTIOKS was cut with PvuII and no PNA was present. Lane 2: same as lane one with PNA present. Lane 3: no PNA and PTIOKS was cut with BamHl."}}, "data": [{"substance": "H-T10LysNH2 [PNA H-T10-LysNH2]", "values": [{"measurement": "salt concentration tolerated by complex formed at low salt", "setting": "[1]; NaCl", "result": "at least 500 mM"}, {"measurement": "turns of the double helix released upon binding of PNA", "setting": "[1]; TE buffer, two-dimensional gel electrophoresis", "result": "8-10 turns"}, {"measurement": "transcription elongation by RNA polymerase T3", "setting": "[2]", "result": "effectively blocked"}, {"measurement": "primer extension product of Taq DNA polymerase", "setting": "[3]", "result": "a product corresponding in length to blockage at the PNA was produced"}]}]}
